Experimental data: US20230064879A1, “NANODRUG PARTICLES, THE USE THEREOF, AND PREPARATION METHOD THEREOF” (NATIONAL YANG MING CHIAO TUNG UNIVERSITY, priority 2021, published 2023)
In brackets after ≈: the same amount, converted by molar mass.

What was measured:
[1] = In vitro release of camptothecin (dialysis bag, Korsmeyer-Peppas model); assay type: physicochemical; conditions: PBS pH 7.4, 37° C., 168 hours, MWCO 2,000 Da
Method: The in vitro release of camptothecin under different conditions were compared; the conditions were: […] The test duration time was 168 hours, the test temperature was 37° C., and the dialysis bag with molecular weight cut-off (MWCO) of 2,000 Da was used.

[2] = test system: A549 cells; test: Cytotoxicity test on A549 cells; assay type: cell-based; conditions: Homo sapiens, 24 hours after drug administration
Method: The amount of the cells in each test well was 100 cells. 24 hours after the drug administration, the cell counts were measured.

[3] = test system: HT-29 cells; test: Cytotoxicity test on HT-29 cells; assay type: cell-based; conditions: Homo sapiens, 24 hours after drug applied

Compound: CC[C@@]1(O)C(=O)OCc2c1cc1n(c2=O)Cc2cc3ccccc3nc2-1 [Camptothecin]
- K (Korsmeyer-Peppas model) [1]: 44.25
- n (Korsmeyer-Peppas model) [1]: 0.09985
- IC50 [2]: 40.1 µg/mL (≈ 115 µM)
- IC50 [3]: 52.3 µg/mL (≈ 150 µM)
